For the experiment, the target named is Ubiquitin carboxyl-terminal hydrolase 30 (Homo sapiens) (UniProt Q70CQ3). The experiment in a line: ubiquitin-specific protease 30 DUB inhibitors, concentration-effect, biochemical, validation of primary actives (AID 1645865). To be noted: purified USP30, Ub-rhodamine cleavage, fluorescence, 2 h.

The source made the active and inactive calls.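 The calls were made as follows: active = maximal inhibition of the USP30 enzyme reaching 30% or more across the dose series; inactive = the rest.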

Chain of Ubiquitin carboxyl-terminal hydrolase 30 (Homo sapiens) (Q70CQ3 whole entry, looked up): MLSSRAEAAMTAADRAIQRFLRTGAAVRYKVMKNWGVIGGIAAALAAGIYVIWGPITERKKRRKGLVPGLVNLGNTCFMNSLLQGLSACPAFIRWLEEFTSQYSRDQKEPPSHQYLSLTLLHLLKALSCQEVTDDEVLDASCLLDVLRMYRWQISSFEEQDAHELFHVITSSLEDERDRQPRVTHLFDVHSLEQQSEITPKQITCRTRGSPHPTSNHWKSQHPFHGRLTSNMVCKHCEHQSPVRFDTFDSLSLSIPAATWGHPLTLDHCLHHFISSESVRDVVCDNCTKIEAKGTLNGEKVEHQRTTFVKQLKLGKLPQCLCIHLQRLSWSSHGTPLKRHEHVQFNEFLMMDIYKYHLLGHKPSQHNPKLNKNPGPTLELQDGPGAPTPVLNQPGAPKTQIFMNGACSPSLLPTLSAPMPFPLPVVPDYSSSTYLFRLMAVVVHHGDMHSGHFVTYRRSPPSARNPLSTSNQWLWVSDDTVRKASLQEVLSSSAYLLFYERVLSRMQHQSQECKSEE

For the compound `Cc1nn(-c2ccccc2)c(C)c1C(=O)OCC(=O)Nc1cccc(C#N)c1`, the IC50 was > 50 µM (inactive).

With `COc1cc(Cl)ccc1C(=O)Nc1cccc(-n2cnnn2)c1C`, the IC50 is 10.2 µM. The same measure for `O=c1c2cnc(N3CCOCC3)nc2ccn1CCc1ccccc1`: 16.7 µM. With `Cc1ccc(C(=O)Nc2ccc3c(c2)C(=O)N(C)c2ccccc2O3)cc1C`, the IC50 was > 50 µM (inactive).

Take `COc1cc(C(=O)NC(Cc2ccccc2)c2nc3ccccc3[nH]2)cc(OC)c1OC` (configuration not stated): the IC50 was 2.06 µM. The value for `COc1ccc(OC)c(CCNC(=O)CCC2=NS(=O)(=O)c3ccc(C(F)(F)F)cc3N2)c1` was 23.5 µM; that for `Cc1c(C(=O)NCc2cccc(Br)c2)oc2c1-c1[nH]ncc1CC2` was > 50 µM (inactive). The value for `CCC(C)NC(=O)Cn1c(=O)n(-c2ccccc2)c(=O)c2ccc(C(=O)NCc3ccco3)cc21` (configuration not stated) was 28.5 µM; that for `COc1cnc(-c2ccccn2)nc1Sc1ccc(C)cc1` was 25.7 µM; that for `CCc1nnc(NC(=O)c2nnn(-c3ccccc3Cl)c2C)s1` was > 50 µM (inactive). The value for `O=C(Nc1ccc(-c2cn3ccsc3n2)cc1)c1ccc(Cl)c([N+](=O)[O-])c1` was 1.27 µM.

As for `CCc1ccc(NC(=O)CN=C2NS(=O)(=O)C(c3ccc(CC)cc3)=C2C)cc1`, the IC50 is 4.67 µM. In the case of `Cc1ccccc1N1C(=O)/C(=C\c2cccn2C)c2ccccc2C1=O`, the IC50 was > 50 µM (inactive). The same measure for `N#C/C(=C\c1ccc(-c2cc(Cl)ccc2Cl)o1)c1nnc2n1CCCCC2`: > 50 µM (inactive). The same measure for `Cc1nc(C(=O)NC2(O)C(=O)c3ccccc3C2=O)cs1`: 23.1 µM; for `Cc1nc(C(=O)Nc2cccc(Cl)c2Cl)nn1-c1cc(Cl)cc(Cl)c1`: 0.0981 µM; for `COc1ccccc1-c1nc2c3c(C)c(C)n(-c4ccc(Br)cn4)c3ncn2n1`: 0.887 µM.

These data come from PubChem BioAssay AID1645865 (Buhrlage Lab, Dana-Farber Cancer Institute and Novartis …, 2021).
